Results published in PMC3984011 (Journal of medicinal chemistry, 2013).
Values belong to the molecule of their own block, whether it stands above or below them.

Experiments:
Type in all cases: cell-based
[1] = molecular target: T1, DAGLβ (diacylglycerol lipase-β) (Mus musculus, UniProt Q91WC9); experiment: competitive ABPP-SILAC in Neuro2A; conditions: N2a, read-out: % inhibition at 20 μM
T1 sequence (Q91WC9 1-669): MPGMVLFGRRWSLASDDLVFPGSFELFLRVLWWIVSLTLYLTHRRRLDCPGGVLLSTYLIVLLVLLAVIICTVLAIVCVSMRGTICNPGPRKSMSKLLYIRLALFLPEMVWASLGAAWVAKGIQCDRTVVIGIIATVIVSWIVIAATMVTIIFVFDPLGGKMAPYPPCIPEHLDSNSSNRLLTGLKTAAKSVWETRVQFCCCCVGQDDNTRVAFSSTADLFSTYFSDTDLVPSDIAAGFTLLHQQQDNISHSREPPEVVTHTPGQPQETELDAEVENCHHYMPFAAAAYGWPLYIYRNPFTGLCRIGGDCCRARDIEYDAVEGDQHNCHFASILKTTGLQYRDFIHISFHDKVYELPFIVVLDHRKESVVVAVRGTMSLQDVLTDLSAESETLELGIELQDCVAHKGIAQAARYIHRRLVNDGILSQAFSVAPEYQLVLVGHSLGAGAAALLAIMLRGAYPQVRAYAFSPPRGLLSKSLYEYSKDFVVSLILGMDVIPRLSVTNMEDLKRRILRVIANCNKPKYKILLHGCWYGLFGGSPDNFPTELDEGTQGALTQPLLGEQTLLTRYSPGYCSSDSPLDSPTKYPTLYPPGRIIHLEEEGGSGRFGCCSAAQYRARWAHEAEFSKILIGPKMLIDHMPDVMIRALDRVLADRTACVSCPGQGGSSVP

[2] = molecular target: T1, DAGLβ (diacylglycerol lipase-β); experiment: gel-based competitive ABPP, DAGLβ-HEK293T membrane lysate, probe […]; conditions: read-out: DAGLβ % inhibition (100 nM)
[3] = molecular target: T1, DAGLβ (diacylglycerol lipase-β); experiment: gel-based competitive ABPP, DAGLβ-HEK293T lysate, probe […]; conditions: read-out: DAGLβ % inhibition (100 nM)

- inhibition at 20 µM [1]: > 80%
SMILES: Cc1cc(C)n2c1C=C1C=CC(CCC(=O)NCCCCCN(CCc3ccccc3)C(=O)n3cc(-c4ccc(OC(F)(F)F)cc4)nn3)=[N+]1[B-]2(F)F [compound 38, HT-01]

SMILES: O=C(N1CCCCC1Cc1ccccc1)n1cc(-c2ccc(-c3ccccc3)cc2)nn1 (stereo not drawn) [compound 11, KT109]
- inhibition at 0.1 µM [2]: 60.8%

- inhibition at 0.1 µM [3]: 55.3%
SMILES: COc1ccccc1-c1ccc(-c2cn(C(=O)N3CCCCC3Cc3ccccc3)nn2)cc1 (racemic) [compound 27, KT172]
